Entries after “also recorded” stand apart in the source; their conditions may differ. Read-outs that look alike come from different tables or passages of the source.
Assays:
[1] = test system: commercially available lipid kinases and the related mTOR protein kinase; test: In vitro kinase profiling at fixed 10 μM (lipid kinase panel, mTOR, general kinase panel); assay type: biochemical; settings: 10 μM compound; listed as C2a_Inh3
Experimental: FIG. 7. In vitro kinase activity in presence of 10 μM compounds. (A-C) The specificity of initial screening hits and C2a_inh1-3 was validated by incubation with available lipid kinases. […] (D) Selectivity may be modulated by modifying the R11 substituent of Formula 1. […]
We firstly analyzed the specificity of C2a_inh1 (dihydropteridinone derived compound) and other initial screening hits (eg. quinolone derived compound) in vitro. […]

[2] = test system: HeLa cells overexpressing SNX9 AS; test: SNX9 AS membrane recruitment / tubulation; assay type: cell-based; settings: eGFP-SNX9 AS OE HeLa cells, vs DMSO
Experimental: (§1) FIG. 8. Inhibition of PI3KC2α in living cells upon treatment with C2a_inh1-3. (A) PI3KC2α inhibition impairs CCP dynamics analyzed by TIRF microscope. eGFP-clathrin expressing Cos7 cells were treated by DMSO or C2a_Inh3 for 1 h and imaged by TIRF microscope. […] (B) C2a_Inh3 treatment of eGFP-SNX9 AS OE HeLa cells. […] Scale bar, 10 μm or 2 μm (inset). (C) Quantification of the results depicted in B, indicating the percentage of cells containing membrane tubules (N=3, statistical analysis with one-way ANOVA, **** is for p<0.0001).
SNX9 is a main effector protein of PI3KC2α dependent PI(3,4)P2 production. […] HeLa cells overexpressing SNX9 AS were treated with C2a_inh_3 or DMSO as a control.

PI3KC2α Δ1-298 = PI3KC2α Δ1-298 (Homo sapiens (Human), UniProt O00443); test: ADP-Glo kinase assay with purified PI3KC2α Δ1-298; assay type: biochemical
PI3KC2α Δ1-298, sequence (O00443 299-1686): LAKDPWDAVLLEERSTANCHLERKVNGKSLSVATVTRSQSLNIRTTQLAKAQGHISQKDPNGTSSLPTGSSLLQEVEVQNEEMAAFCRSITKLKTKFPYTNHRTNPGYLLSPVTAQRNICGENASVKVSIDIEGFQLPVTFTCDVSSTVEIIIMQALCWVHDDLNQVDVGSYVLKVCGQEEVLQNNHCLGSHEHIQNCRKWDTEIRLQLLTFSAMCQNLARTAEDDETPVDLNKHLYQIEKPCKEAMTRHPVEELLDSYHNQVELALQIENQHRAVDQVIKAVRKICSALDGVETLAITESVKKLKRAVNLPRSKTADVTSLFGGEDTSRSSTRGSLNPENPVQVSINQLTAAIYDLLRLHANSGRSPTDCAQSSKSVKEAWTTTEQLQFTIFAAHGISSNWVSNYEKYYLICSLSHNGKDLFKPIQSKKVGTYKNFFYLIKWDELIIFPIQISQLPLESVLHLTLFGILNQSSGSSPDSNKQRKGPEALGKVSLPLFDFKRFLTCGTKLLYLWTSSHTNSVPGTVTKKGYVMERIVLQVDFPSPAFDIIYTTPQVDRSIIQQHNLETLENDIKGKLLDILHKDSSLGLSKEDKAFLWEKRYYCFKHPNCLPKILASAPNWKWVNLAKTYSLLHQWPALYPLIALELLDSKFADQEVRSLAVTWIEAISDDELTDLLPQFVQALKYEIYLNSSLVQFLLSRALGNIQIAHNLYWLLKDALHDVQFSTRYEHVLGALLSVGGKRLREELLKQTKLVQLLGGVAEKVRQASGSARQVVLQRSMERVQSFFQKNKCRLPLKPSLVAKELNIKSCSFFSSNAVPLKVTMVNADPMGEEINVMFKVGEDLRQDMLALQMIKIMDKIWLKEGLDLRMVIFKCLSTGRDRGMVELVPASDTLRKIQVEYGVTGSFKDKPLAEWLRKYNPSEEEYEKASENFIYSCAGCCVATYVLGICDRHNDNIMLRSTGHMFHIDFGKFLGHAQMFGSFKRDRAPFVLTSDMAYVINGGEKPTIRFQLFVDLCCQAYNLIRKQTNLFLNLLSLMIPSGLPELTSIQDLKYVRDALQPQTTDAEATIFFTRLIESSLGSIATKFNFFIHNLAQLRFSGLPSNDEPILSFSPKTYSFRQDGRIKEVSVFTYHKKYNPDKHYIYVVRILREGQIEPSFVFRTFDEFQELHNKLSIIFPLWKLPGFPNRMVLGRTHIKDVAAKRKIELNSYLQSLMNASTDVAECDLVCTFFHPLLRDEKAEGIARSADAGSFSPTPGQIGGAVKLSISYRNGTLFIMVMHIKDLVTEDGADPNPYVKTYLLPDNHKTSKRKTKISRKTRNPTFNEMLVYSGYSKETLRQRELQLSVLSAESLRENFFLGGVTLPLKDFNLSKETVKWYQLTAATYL
Method in brief: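 Purified human PI3KC2α Δ1-298 (10 ng/μl) with liver PI (200 μM) and ATP (40 μM), 20 min kinase reaction; ADP formed read by ADP-Glo luminescence after 40 min ATP depletion. Screening compounds at 10 μM; reactions lacking PI served as negative control.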

[3] = test system: eGFP-clathrin expressing Cos7 cells; test: CCP dynamics by TIRF microscopy; assay type: cell-based; settings: treatment for 1 h, vs DMSO
Experimental: as §1
To test if the validated compounds are cell membrane permeable and, thus, can be used as medicaments and in cell-based experiments, the inventors analyzed clathrin-mediated endocytosis of transferrin in the presence of PI3KC2α inhibitors or DMSO as a solvent control. […] Further, the inventors monitored the CCP dynamics in cells with PI3KC2α inhibitor (C2a_Inh3) treatment for 1 h.

IC50 (PI3KC2α Δ1-298; listed as C2a_Inh3, read-out: IC50 for PI3KC2α inhibition): 100 nM
IC50 (PI3KC2α Δ1-298; read-out: IC50 (PI3KC2α; ADP-Glo™ assay)): 100 nM
Compound: O=C(CSc1nc2nccnc2c(=O)n1CCc1ccccc1)Nc1nccs1 [Example Compound 11, 2-((4-Oxo-3-phenethyl-3,4-dihydropteridin-2-yl)thio)-N-(thiazol-2-yl)acetamide]
specificity in kinase panel [1]: specifically inhibited class II PI3Ks; also recorded: relatively high off-targeting activity towards other class II kinase isoforms
SNX9 AS recruitment to membrane / membrane tubules ([2]; listed as C2a_Inh3): reduced the recruitment of SNX9 to the membrane
SNX9 AS recruitment to membrane / membrane tubules ([2]; listed as C2a_inh_3): remained largely cytosolic
CCP lifetime (CCP dynamics) ([3]; listed as C2a_Inh3): increased CCP-lifetimes
CCP lifetime (CCP dynamics) ([3]; listed as C2a_Inh_3): increase of lifetime
